Laboratory results reported in patent publication US8871796B2, “Diaryl ether derivatives as notch sparing gamma secretase inhibitors” (Merck Sharp & Dohme Corp., priority 2009, dated 2014).
Read-outs that look alike come from different tables or passages of the source.

Assay: APP processing: AlphaLisa assay of secreted Aβ40 and Aβ42 from SP4CT cells
Format: cell-based
Conditions: Homo sapiens, SH-SY5Y cells expressing amyloid β protein (SP4CT cells)
Outline: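 Media from compound-treated SP4CT cells (SH-SY5Y expressing amyloid β protein) was assayed by AlphaLisa. Donor beads carried biotinylated 4G8 anti-Aβ antibody; acceptor beads carried G210 (Aβ40) or 12F4 (Aβ42) in separate plates, with luminescence proportional to peptide abundance.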

[1] = read-out: IC50, inhibition of production of Aβ40 peptide
[2] = read-out: IC50, inhibition of production of Aβ42 peptide

SMILES | IC50 [1] [nM] | IC50 [2] [nM]
CCn1nc(-c2cccc(C(C)(C)NS(=O)(=O)CC(F)(F)F)c2)c(Cl)c1Oc1ccc(C(F)(F)F)cc1 [Example 112, N-[2-(3-{4-chloro-1-ethyl-5-[4-(trifluoromethyl)phenoxy]-1H-pyrazol-3-yl}phenyl)propan-2-yl]-2,2,2-trifluoroethanesulfonamide] | < 200 | < 200
CCn1nc(Oc2ccc(C(F)(F)F)cc2)c(Cl)c1-c1cccc(C(C)(C)NS(=O)(=O)CC(F)(F)F)c1 [Example 113, N-[2-(3-{4-chloro-1-ethyl-3-[4-(trifluoromethyl)phenoxy]-1H-pyrazol-5-yl}phenyl)propan-2-yl]-2,2,2-trifluoroethanesulfonamide] | < 200 | < 200
CCn1nc(Oc2ccc(C(F)(F)F)cc2)c(Br)c1-c1cccc(C(C)(C)NS(=O)(=O)CC(F)(F)F)c1 [Example 114, N-[2-(3-{4-Bromo-1-ethyl-3-[4-(trifluoromethyl)phenoxy]-1H-pyrazol-5-yl}phenyl)propan-2-yl]-2,2,2-trifluoroethanesulfonamide] | < 200 | < 200
CCn1nc(-c2cccc(C(C)(C)NS(=O)(=O)CC(F)(F)F)c2)c(Br)c1Oc1ccc(C(F)(F)F)cc1 [Example 115, N-[2-(3-{4-bromo-1-ethyl-5-[4-(trifluoromethyl)phenoxy]-1H-pyrazol-3-yl}phenyl)propan-2-yl]-2,2,2-trifluoroethanesulfonamide] | < 200 | < 200
CCn1nc(-c2cccc(C(C)(C)NS(=O)(=O)CC(F)(F)F)c2)c(I)c1Oc1ccc(C(F)(F)F)cc1 [Example 116, N-[2-(3-{1-ethyl-4-iodo-5-[4-(trifluoromethyl)phenoxy]-1H-pyrazol-3-yl}phenyl)propan-2-yl]-2,2,2-trifluoroethanesulfonamide] | < 200 | < 200
CCn1nc(-c2cccc(C(C)(C)NS(=O)(=O)CC(F)(F)F)c2)c(C#N)c1Oc1ccc(C(F)(F)F)cc1 [Example 117, N-[2-(3-{4-cyano-1-ethyl-5-[4-(trifluoromethyl)phenoxy]-1H-pyrazol-3-yl}phenyl)propan-2-yl]-2,2,2-trifluoroethanesulfonamide] | < 200 | < 200
CCn1nc(-c2cccc(C(C)(C)NS(=O)(=O)CC(F)(F)F)c2)c(C=O)c1Oc1ccc(C(F)(F)F)cc1 [Example 118, N-[2-(3-{1-ethyl-4-formyl-5-[4-(trifluoromethyl)phenoxy]-1H-pyrazol-3-yl}phenyl)propan-2-yl]-2,2,2-trifluoroethanesulfonamide] | < 200 | < 200
CCn1nc(-c2cccc(C(C)(C)NS(=O)(=O)CC(F)(F)F)c2)c(C#Cc2ccccc2)c1Oc1ccc(C(F)(F)F)cc1 [Example 119, N-[2-(3-{1-ethyl-4-(phenylethynyl)-5-[4-(trifluoromethyl)phenoxy]-1H-pyrazol-3-yl}phenyl)propan-2-yl]-2,2,2-trifluoroethanesulfonamide] | < 200 | < 200
CCn1nc(Oc2ccc(C(F)(F)F)cc2)cc1-c1ccc2c(c1)CC(NS(=O)(=O)NCC(F)(F)F)C2 (stereo not drawn) [Example 120, (N-[5-(1-Ethyl-3-(4-trifluoromethylphenoxy)-1H-pyrazol-5-yl)-2,3-dihydro-1H-inden-2-yl]-N′-(2,2,2-trifluoroethyl)sulfuric diamide)] | < 200 | < 200
CCn1nc(-c2ccc3c(c2)CC(NS(=O)(=O)NCC(F)(F)F)C3)cc1Oc1ccc(C(F)(F)F)cc1 (stereo not drawn) [Example 121] | < 200 | < 200
CCn1nc(Oc2ccc(C(F)(F)F)cn2)cc1-c1ccc2c(c1)CC(NS(=O)(=O)NCC(F)(F)F)C2 (stereo not drawn) [Example 122, N-[5-(1-ethyl-3-{[5-(trifluoromethyl)pyridin-2-yl]oxy}-1H-pyrazol-5-yl)-2,3-dihydro-1H-inden-2-yl]-N′-(2,2,2-trifluoroethyl)sulfamide] | < 200 | < 200
CCCNS(=O)(=O)NC1Cc2ccc(-c3cc(Oc4ccc(C(F)(F)F)cc4)nn3CC)cc2C1 (stereo not drawn) [Example 123, N-(5-{1-ethyl-3-[4-(trifluoromethyl)phenoxy]-1H-pyrazol-5-yl}-2,3-dihydro-1H-inden-2-yl)-N′-propylsulfamide] | < 200 | < 200
CCn1nc(Oc2ccc(C(F)(F)F)cc2)cc1-c1ccc2c(c1)CC(NS(=O)(=O)NCC(C)C)C2 (stereo not drawn) [Example 124, N-(5-{1-ethyl-3-[4-(trifluoromethyl)phenoxy]-1H-pyrazol-5-yl}-2,3-dihydro-1H-inden-2-yl)-N′-isobutylsulfamide] | < 200 | < 200
CCn1nc(Oc2ccc(C(F)(F)F)cc2)cc1-c1ccc2c(c1)CC(NS(=O)(=O)NC1CCC1)C2 (stereo not drawn) [Example 125, N-cyclobutyl-N′-(5-{1-ethyl-3-[4-(trifluoromethyl)phenoxy]-1H-pyrazol-5-yl}-2,3-dihydro-1H-inden-2-yl)sulfamide] | < 200 | < 200
CCn1nc(-c2cncc(C3(NS(=O)(=O)CC(F)(F)F)COC3)c2)cc1Oc1ccc(C(F)(F)F)cc1 [Example 126, N-[3-(5-{1-ethyl-5-[4-(trifluoromethyl)phenoxy]-1H-pyrazol-3-yl}pyridine-3-yl)oxetan-3-yl]-2,2,2-trifluoroethanesulfonamide] | < 200 | < 200
CCn1nc(-c2cncc(C3(NS(=O)(=O)NCC(F)(F)F)COC3)c2)cc1Oc1ccc(C(F)(F)F)cc1 [Example 127, N-[3-(5-{1-ethyl-5-[4-(trifluoromethyl)phenoxy]-1H-pyrazol-3-yl}pyridine-3-yl)oxetan-3-yl]-N′-(2,2,2-trifluoroethyl)sulfamide] | < 200 | < 200
CCn1nc(-c2cccc(C3(NS(=O)(=O)CC(F)(F)F)COC3)c2)cc1Oc1ccc(C#N)cc1 [Example 128] | < 200 | < 200

Next, values leading:

IC50 [1] [nM] | IC50 [2] [nM] | SMILES
< 200 | < 200 | CCn1nc(-c2cccc(C3(NS(=O)(=O)NCC(F)(F)F)COC3)c2)cc1Oc1ccc(C#N)cc1 [Example 129, N-(3-{3-[5-(4-cyanophenoxy)-1-ethyl-1H-pyrazol-3-yl]phenyl}oxetane-3-yl)-N′-(2,2,2-trifluoroethyl)sulfamide]
< 200 | < 200 | CCn1nc(-c2cccc(C3(NS(=O)(=O)NC4CC(F)(F)C4)COC3)c2)cc1Oc1ccc(C#N)cc1 [Example 130, N-(3-{3-[5-(4-cyanophenoxy)-1-ethyl-1H-pyrazol-3-yl]phenyl}oxetane-3-yl)-N′-(3,3-difluorocyclobutyl)sulfamide]
< 200 | < 200 | CN(C)C(=O)Cn1nc(-c2cccc(C3(NS(=O)(=O)CC(F)(F)F)COC3)c2)cc1Oc1ccc(C(F)(F)F)cc1 [Example 131, 2-[5-(4-trifluoromethylphenoxy)-3-(3-{3-[(2,2,2-trifluoroethylsulfonyl)amino]oxetan-3-yl}phenyl)-1H-pyrazol-1-yl]-N,N-dimethylacetamide]
< 200 | < 200 | CNC(=O)Cn1nc(-c2cccc(C3(NS(=O)(=O)CC(F)(F)F)COC3)c2)cc1Oc1ccc(C(F)(F)F)cc1 [Example 132, 2-[5-(4-trifluoromethylphenoxy)-3-(3-{3-[(2,2,2-trifluoroethylsulfonyl)amino]oxetan-3-yl}phenyl)-1H-pyrazol-1-yl]-N-methylacetamide]
< 200 | < 200 | O=C(Cn1nc(-c2cccc(C3(NS(=O)(=O)CC(F)(F)F)COC3)c2)cc1Oc1ccc(C(F)(F)F)cc1)N1CCOCC1 [Example 133, N-[3-(3-{5-(4-trifluoromethylphenoxy)-1-[2-oxo-2-(morpholin-4-yl)ethyl]-1H-pyrazol-3-yl}phenyl)oxetan-3-yl]- ,2,2,2-trifluoroethanesulfonamide]
< 200 | < 200 | O=S(=O)(CC(F)(F)F)NC1(c2cccc(-c3cc(Oc4ccc(C(F)(F)F)cc4)n(Cc4cocn4)n3)c2)COC1 [Example 134, N-(3-{3-[5-(4-trifluoromethylphenoxy)-1-(1,3-oxazol-4-ylmethyl)-1H-pyrazol-3-yl]phenyl}oxetan-3-yl)-2,2,2-trifluoroethanesulfonamide]
< 200 | < 200 | O=S(=O)(CC(F)(F)F)NC1(c2cccc(-c3cc(Oc4ccc(C(F)(F)F)cc4)nn3Cc3cocn3)c2)COC1 [Example 135, N-(3-{3-[3-(4-trifluoromethylphenoxy)-1-(1,3-oxazol-4-ylmethyl)-1H-pyrazol-5-yl]phenyl}oxetan-3-yl)-2,2,2-trifluoroethanesulfonamide]
< 200 | < 200 | Cc1nnc(Cn2nc(-c3cccc(C4(NS(=O)(=O)CC(F)(F)F)COC4)c3)cc2Oc2ccc(C(F)(F)F)cc2)o1 [Example 136, N-(3-{3-[5-(4-trifluoromethylphenoxy)-1-(5-methyl-1,3,4-oxadiazol-2-ylmethyl)-1H-pyrazol-3-yl]phenyl}oxetan-3-yl)-2,2,2-trifluoroethanesulfonamide]
< 200 | < 200 | Cc1cc(Cn2nc(-c3cccc(C4(NS(=O)(=O)CC(F)(F)F)COC4)c3)cc2Oc2ccc(C(F)(F)F)cc2)on1 [Example 137, N-(3-{3-[5-(4-trifluoromethylphenoxy)-1-(5-methyl-1,2-isoxazol-3-ylmethyl)-1H-pyrazol-3-yl]phenyl}oxetan-3-yl)-2,2,2-trifluoroethanesulfonamide]
< 200 | < 200 | O=S(=O)(CC(F)(F)F)NC1(c2cccc(-c3cc(Oc4ccc(C(F)(F)F)cc4)n(CC4CCCO4)n3)c2)COC1 (stereo not drawn) [Example 138, N-(3-{3-[5-(4-trifluoromethylphenoxy)-1-(tetrahydrofuran-2-ylmethyl)-1H-pyrazol-3-yl]phenyl}oxetan-3-yl)-2,2,2-trifluoroethanesulfonamide]
